{"source": "patent US20230075856A1", "about": "“CYCLIC SULFAMIDE COMPOUNDS FOR TREATMENT OF HBV” (Assembly Biosciences, Inc., priority 2018, published 2023)", "tested_on": "HBV viral load production from HepAD38 cells", "test": "Viral production from HepAD38 cells: viral load in supernatant by qPCR of the HBV core sequence", "type": "cell-based", "conditions": "5 days incubation, qPCR of supernatant HBV DNA vs DMSO control, read-out: viral load lowering EC50 (Activity)", "experimental": "Assay Measuring Activity of Test Compounds on Viral Production from HepAD38 Cells\nHepAD38 cells grown in a T-150 flask (Corning, cat #: 430825) with Growth Medium (DMEM/F12 […] (Hyclone, cat #: SH30023.02), 1× Pen/Strep (Invitrogen, cat #: 15140-122), 10% FBS (Tissue Culture Biologics, cat #: 101), […] G418 (Alfa Aesar, cat #: J62671), 1 μg/mL Tetracycline (Teknova, cat #: T3320)) were detached with 0.25% trypsin-EDTA (Invitrogen, cat #: 25200-056). Tetracycline-free treatment medium (15 mL DMEM/F12 (1:1) 1× Pen/step, with 2% FBS, Tet-system approved (Clontech, cat #: 631106) were then added to mix, transferred into a 50 ml conical tube (Falcon, cat #: 21008-918,) and spun at 1300 rpm for 5 min. Pelleted cells were then re-suspended/washed with 50 mL of 1×DPBS (Invitrogen, cat #: 14190-136) 2 times and 50 mL treatment medium twice. HepAD38 cells were then re-suspended with 10 mL of treatment medium, syringed and counted. Wells of 96-well clear bottom TC plate (Corning, cat #: 3904,) were seeded at 50,000 cells/well in 180 μL of treatment medium, and 20 μL of either 10% DMSO (Sigma, cat #: D4540) as controls or a 10× solution of test compounds in 10% DMSO in treatment media was added for a final compound concentration starting at 10 μM, and plates were incubated in 5% CO2 incubator at 37° C. for 5 days.\nSubsequently viral load production was assayed by quantitative PCR (qPCR) of the HBV core sequence. PCR reaction mixture containing forward primers HBV-f 5′-CTGTGCCTTGGGTGGCTIT-3′ (IDT DNA), Reverse primers HBV-r 5′-[…]-3′ (IDT DNA), Fluorescent TaqMan™ Probes HBV-probe 5′-FAM/AGCTCCAAA/ZEN/[…]/3IABkFQ-3′ (IDT DNA), 10 μL/well of PerfeCTa® qPCR ToughMix® (Quanta Biosciences, Cat #: 95114-05K), and 6 μL/well of DEPC water (Alfa Aesar, cat #: J62087) was prepared. Four μL of supernatant was added to 16 μL of the reaction mixture in a qPCR plate (Applied Biosytems, Cat #: 4309849), sealed with a film (Applied Biosystems, Cat #: 4311971), centrifuged for a few seconds, and subsequently run on an Applied Biosystems VIIA7. The PCR mixture was incubated at 45° C. for 5 min, then 95° C. for 10 min, followed by 40 cycles of 10 seconds at 95° C. and 20 seconds at 60° C. Viral load was quantified against known HBV DNA standards by using ViiA™ 7 Software. Viral load in the supernatant from wells with treated cells were compared against viral load in supernatant from DMSO control wells (≥3 per plate). Cell viability assay was performed with CellTiter-Glo Luminescent Cell Viability Assay (Promega, cat #: G7573) with modification. Mixed appropriate amount of CellTiter-Glo (CTG) 1×DPBS in a 1:1 ratio, added 100 uL of the mixture to each well followed completely removal of all supernatant in each well without touching cell surface. Incubated the plate at room temperature for 10 min on an orbital shaker, and then read the plate with a plate reader (TECAN M1000 or Envision). EC50 or CC50 values were calculated through curve-fitting of the four-parameter nonlinear-logistic-regression model (GraphPad Prism or Dotmatics). CC50 values were all >10 μM.", "key": {"[1]": {"conditions": "Hepatitis B virus, HePAD38, 120 h"}}, "note": "pEC50: −log10 of the molar value. Like-named read-outs stand apart in the source and are kept apart here."}
{"molecule": "CN1C(C(=O)Nc2ccc(F)c(Cl)c2)CC(C(=O)NC(c2ccccc2)c2cnc(-c3ccccc3Cl)s2)NS1(=O)=O", "note": "(single isomer, unassigned) [1068-ISOMER-A, N3-(3-chloro-4-fluoro-phenyl)-N5-[[2-(2-chlorophenyl)thiazol-5-yl]-phenyl-methyl]-2-methyl-1,1-dioxo-1,2,6-thiadiazinane-3,5-dicarboxamide]", "values": [{"measurement": "pEC50", "setting": "[1]", "result": "> 7.30"}]}
{"molecule": "CN1C(C(=O)Nc2ccc(F)c(Cl)c2)CC(C(=O)N[C@@H](c2ccccc2)c2cnc(-c3ccccc3Cl)s2)NS1(=O)=O", "note": "(single isomer, unassigned) [1068-ISOMER-B]", "values": [{"measurement": "pEC50", "setting": "[1]", "result": "7.00 to 7.30"}]}
{"molecule": "CN1C(C(=O)Nc2ccc(F)c(Cl)c2)C[C@@H](C(=O)N[C@H](c2ccccc2)c2cnc(-c3ccccc3Cl)s2)NS1(=O)=O", "note": "(single isomer, unassigned) [1068-ISOMER-C]", "values": [{"measurement": "pEC50", "setting": "[1]", "result": "> 7.30"}]}
{"molecule": "CN1C(C(=O)Nc2ccc(F)c(Cl)c2)CC(C(=O)N[C@@H](c2ccccc2)c2cnc(-c3ccc(Cl)cc3)s2)NS1(=O)=O", "note": "(single isomer, unassigned) [1068-ISOMER-D]", "values": [{"measurement": "pEC50", "setting": "[1]", "result": "5.00 to 7.00"}]}
{"molecule": "CN1C(C(=O)Nc2ccc(F)c(Cl)c2)CC(C(=O)NCc2nn(-c3ccccc3)c3ccccc23)NS1(=O)=O", "note": "(single isomer, unassigned) [1072-ISOMER-A, N3-(3-chloro-4-fluoro-phenyl)-2-methyl-1,1-dioxo-N5-[(1-phenylindazol-3-yl)methyl]-1,2,6-thiadiazinane-3,5-dicarboxamide]", "values": [{"measurement": "pEC50", "setting": "[1]", "result": "> 7.30"}]}
{"molecule": "CN1C(C(=O)Nc2ccc(F)c(Cl)c2)CC(C(=O)NCc2nn(-c3ccccc3)c3ccccc23)NS1(=O)=O", "note": "(single isomer, unassigned) [1072-ISOMER-B, N3-(3-chloro-4-fluoro-phenyl)-2-methyl-1,1-dioxo-N5-[(1-phenylindazol-3-yl)methyl]-1,2,6-thiadiazinane-3,5-dicarboxamide]", "values": [{"measurement": "pEC50", "result": "5.00 to 7.00"}]}
{"molecule": "CN1C(C(=O)Nc2ccc(F)c(Cl)c2)CC(C(=O)NCc2sc(-c3ccccc3F)nc2C(F)(F)F)NS1(=O)=O", "note": "(single isomer, unassigned) [1082-ISOMER-A, N3-(3-chloro-4-fluoro-phenyl)-N5-[[2-(2-fluorophenyl)-4-(trifluoromethyl)thiazol-5-yl]methyl]-2-methyl-1,1-dioxo-1,2,6-thiadiazinane-3,5-dicarboxamide]", "values": [{"measurement": "pEC50", "setting": "[1]", "result": "> 7.30"}]}
{"molecule": "CN1C(C(=O)Nc2ccc(F)c(Cl)c2)CC(C(=O)NCc2sc(-c3ccccc3F)nc2C(F)(F)F)NS1(=O)=O", "note": "(single isomer, unassigned) [1082-ISOMER-B, N3-(3-chloro-4-fluoro-phenyl)-N5-[[2-(2-fluorophenyl)-4-(trifluoromethyl)thiazol-5-yl]methyl]-2-methyl-1,1-dioxo-1,2,6-thiadiazinane-3,5-dicarboxamide]", "values": [{"measurement": "pEC50", "result": "7.00 to 7.30"}]}
{"molecule": "Cc1nc(-c2ccc(F)cc2F)sc1CNC(=O)C1CC(C(=O)Nc2ccc(F)c(Cl)c2)N(C)S(=O)(=O)N1", "note": "(single isomer, unassigned) [1083-ISOMER-A, N3-(3-chloro-4-fluoro-phenyl)-N5-[[2-(2,4-difluorophenyl)-4-methyl-thiazol-5-yl]methyl]-2-methyl-1,1-dioxo-1,2,6-thiadiazinane-3,5-dicarboxamide]", "values": [{"measurement": "pEC50", "setting": "[1]", "result": "> 7.30"}]}
{"molecule": "CN1C(C(=O)Nc2ccc(F)c(Cl)c2)CC(C(=O)NCc2nn(-c3ccccc3F)c3ccccc23)NS1(=O)=O", "note": "(single isomer, unassigned) [1086-ISOMER-A, N3-(3-chloro-4-fluoro-phenyl)-N5-[[1-(2-fluorophenyl)indazol-3-yl]methyl]-2-methyl-1,1-dioxo-1,2,6-thiadiazinane-3,5-dicarboxamide]", "values": [{"measurement": "pEC50", "setting": "[1]", "result": "> 7.30"}]}
{"molecule": "CN1C(C(=O)Nc2ccc(F)c(Cl)c2)CC(C(=O)NCc2nn(-c3ccccc3F)c3ccccc23)NS1(=O)=O", "note": "(single isomer, unassigned) [1086-ISOMER-B, N3-(3-chloro-4-fluoro-phenyl)-N5-[[1-(2-fluorophenyl)indazol-3-yl]methyl]-2-methyl-1,1-dioxo-1,2,6-thiadiazinane-3,5-dicarboxamide]", "values": [{"measurement": "pEC50", "result": "5.00 to 7.00"}]}
{"molecule": "Cc1nc(-c2ccc(OCCN3CCCCC3)cc2)sc1CNC(=O)C1CC(C(=O)Nc2ccc(F)c(Cl)c2)N(C)S(=O)(=O)N1", "note": "(single isomer, unassigned) [1087-ISOMER-A, N3-(3-chloro-4-fluoro-phenyl)-2-methyl-N5-[[4-methyl-2-[4-[2-(1-piperidyl)ethoxy]phenyl]thiazol-5-yl]methyl]-1,1-dioxo-1,2,6-thiadiazinane-3,5-dicarboxamide]", "values": [{"measurement": "pEC50", "setting": "[1]", "result": "> 7.30"}]}
{"molecule": "Cc1nc(-c2ccc(OCCN3CCCCC3)cc2)sc1CNC(=O)C1CC(C(=O)Nc2ccc(F)c(Cl)c2)N(C)S(=O)(=O)N1", "note": "(single isomer, unassigned) [1087-ISOMER-B, N3-(3-chloro-4-fluoro-phenyl)-2-methyl-N5-[[4-methyl-2-[4-[2-(1-piperidyl)ethoxy]phenyl]thiazol-5-yl]methyl]-1,1-dioxo-1,2,6-thiadiazinane-3,5-dicarboxamide]", "values": [{"measurement": "pEC50", "result": "7.00 to 7.30"}]}
{"molecule": "Cc1nc(-c2ccccc2Cl)sc1[C@H](NC(=O)C1CC(C(=O)Nc2ccc(F)c(Cl)c2)N(C)S(=O)(=O)N1)c1ccccc1", "note": "(single isomer, unassigned) [1100-ISOMER-A]", "values": [{"measurement": "pEC50", "setting": "[1]", "result": "> 7.30"}]}
{"molecule": "Cc1nc(-c2ccccc2Cl)sc1[C@@H](NC(=O)C1CC(C(=O)Nc2ccc(F)c(Cl)c2)N(C)S(=O)(=O)N1)c1ccccc1", "note": "(single isomer, unassigned) [1100-ISOMER-B]", "values": [{"measurement": "pEC50", "setting": "[1]", "result": "5.00 to 7.00"}]}
{"molecule": "Cc1nc(-c2ccccc2Cl)sc1[C@H](NC(=O)C1CC(C(=O)Nc2ccc(F)c(Cl)c2)N(C)S(=O)(=O)N1)c1ccccc1", "note": "(single isomer, unassigned) [1100-ISOMER-C]", "values": [{"measurement": "pEC50", "setting": "[1]", "result": "5.00 to 7.00"}]}
{"molecule": "Cc1nc(-c2ccccc2Cl)sc1[C@@H](NC(=O)C1CC(C(=O)Nc2ccc(F)c(Cl)c2)N(C)S(=O)(=O)N1)c1ccccc1", "note": "(single isomer, unassigned) [1100-ISOMER-D]", "values": [{"measurement": "pEC50", "setting": "[1]", "result": "5.00 to 7.00"}]}
{"molecule": "Cc1nc(-c2ccccc2F)sc1[C@H](NC(=O)C1CC(C(=O)Nc2ccc(F)c(Cl)c2)N(C)S(=O)(=O)N1)c1ccccc1", "note": "(single isomer, unassigned) [1101-ISOMER-A]", "values": [{"measurement": "pEC50", "setting": "[1]", "result": "> 7.30"}]}
{"molecule": "Cc1nc(-c2ccccc2F)sc1[C@@H](NC(=O)C1CC(C(=O)Nc2ccc(F)c(Cl)c2)N(C)S(=O)(=O)N1)c1ccccc1", "note": "(single isomer, unassigned) [1101-ISOMER-B]", "values": [{"measurement": "pEC50", "setting": "[1]", "result": "5.00 to 7.00"}]}
{"molecule": "Cc1nc(-c2ccccc2F)sc1[C@H](NC(=O)C1CC(C(=O)Nc2ccc(F)c(Cl)c2)N(C)S(=O)(=O)N1)c1ccccc1", "note": "(single isomer, unassigned) [1101-ISOMER-C]", "values": [{"measurement": "pEC50", "setting": "[1]", "result": "5.00 to 7.00"}]}
{"molecule": "CN1C(C(=O)Nc2ccc(F)c(Cl)c2)CC(C(=O)NCc2cnc(N)s2)NS1(=O)=O", "note": "(single isomer, unassigned) [1132-ISOMER-A, N5-[(2-aminothiazol-5-yl)methyl]-N3-(3-chloro-4-fluoro-phenyl)-2-methyl-1,1-dioxo-1,2,6-thiadiazinane-3,5-dicarboxamide]", "values": [{"measurement": "pEC50", "setting": "[1]", "result": "7.00 to 7.30"}]}
{"molecule": "CN1C(C(=O)Nc2ccc(F)c(Cl)c2)CC(C(=O)NCc2cnc(N)s2)NS1(=O)=O", "note": "(single isomer, unassigned) [1132-ISOMER-B, N5-[(2-aminothiazol-5-yl)methyl]-N3-(3-chloro-4-fluoro-phenyl)-2-methyl-1,1-dioxo-1,2,6-thiadiazinane-3,5-dicarboxamide]", "values": [{"measurement": "pEC50", "result": "5.00 to 7.00"}]}
{"molecule": "Cc1cn(-c2ccccc2)nc1CNC(=O)C1CC(C(=O)Nc2ccc(F)c(C#N)c2)N(C)S(=O)(=O)N1", "note": "(single isomer, unassigned) [1134-ISOMER-A, N3-(3-cyano-4-fluoro-phenyl)-2-methyl-N5-[(4-methyl-1-phenyl-pyrazol-3-yl)methyl]-1,1-dioxo-1,2,6-thiadiazinane-3,5-dicarboxamide]", "values": [{"measurement": "pEC50", "setting": "[1]", "result": "5.00 to 7.00"}]}
